Experimental data taken from BindingDB's records for patent US20240199630 (CNIO, 2024).

target: Serine/threonine-protein kinase pim-1 (Homo sapiens, UniProt P11309)
Sequence (P11309 whole entry): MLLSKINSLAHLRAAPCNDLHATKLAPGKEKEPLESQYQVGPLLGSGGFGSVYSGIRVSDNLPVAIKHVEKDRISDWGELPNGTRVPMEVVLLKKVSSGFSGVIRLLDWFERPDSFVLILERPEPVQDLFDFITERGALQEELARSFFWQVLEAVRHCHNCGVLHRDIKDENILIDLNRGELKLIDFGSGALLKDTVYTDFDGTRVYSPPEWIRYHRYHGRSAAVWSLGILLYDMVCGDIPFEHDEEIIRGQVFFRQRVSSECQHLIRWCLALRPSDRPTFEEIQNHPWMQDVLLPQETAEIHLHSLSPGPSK

Question: With `CN1CCOc2c1c(N1CCCC3(CCNCC3)C1)nn1c(-c3ccnc(C(F)(F)F)c3)cnc21` [US20240199630, Compound T4.7] as the compound, how does the IC50 read?
Answer: 1.1 nM

Question: How did the IC50 turn out when `CN(CC1CCNCC1)c1nn2c(-c3ccnc(C(F)(F)F)c3)cnc2c2c1N(C)CCO2` [US20240199630, Compound T4.1] was run?
Answer: 0.9 nM

Question: Which IC50 does the source give for `CN1CCOc2c1c(N1CCC3(CCCNC3)CC1)nn1c(-c3ccnc(C(F)(F)F)c3)cnc21` [US20240199630, Compound T4.6] here?
Answer: 8.3 nM

Question: `CNCC1CCN(c2nn3c(-c4ccnc(C(F)(F)F)c4)cnc3c3c2N(C)CCO3)CC1` [US20240199630, Compound T4.2] was tested. Which IC50 did it give?
Answer: 5.5 nM

Question: How did the IC50 turn out when `CN1CCOc2c1c(NC1CC3(CCNCC3)C1)nn1c(-c3ccnc(C(F)(F)F)c3)cnc21` [US20240199630, Compound T4.8] was run?
Answer: 2 nM

Question: Which IC50 does the source give for `CN1CCOc2c1c(N1CCC3(CC1)CC(N)C3)nn1c(-c3ccnc(C(F)(F)F)c3)cnc21` [US20240199630, Compound T4.9] here?
Answer: 0.8 nM
